# According to patent publication US20220289724A1, “KIF18A INHIBITORS” (AMGEN INC., priority 2019, published 2022):
# Target: T1, Recombinant human KIF18A (1-467 His-tagged) protein (Homo sapiens, UniProt Q8NI77)
# T1 construct: Recombinant human KIF18A (1-467 His-tagged) protein; His; made in house
# Experiment: KIF18A Enzyme Assay: microtubule-stimulated ATPase activity assay (ADP-Glo)
# Assay type: biochemical
# Conditions: KIF18A protein 30 nM, 30 μg/mL pig microtubules, ATP at Km 75 μM, ADP-Glo luminescence, RT
# Excerpt: KIF18A Enzyme Assay: Microtubule-stimulated ATPase activity assay is used to measure KIF18A enzyme activity after treatment with compound. Compounds were 2-fold serially diluted in DMSO (Sigma Inc) over 22-point concentration range. Recombinant human KIF18A (1-467 His-tagged) protein was expressed using a baculovirus system and purified by affinity chromatography by Amgen Inc. Concentrations of KIF18A protein, microtubules (MT), and ATP in the reaction were optimized for standardized homogenous enzyme assay using ADP-Glorm Kinase/ATPase Assay Kit (Promega Inc). The assay measures ADP formed from the ATPase reaction. […] Concentration-response curve-fitting and IC50 determination was performed using Genedata Screener Software (Standard 15.0.1, Genedata Inc) with a four-parameter logistic regression fit model.
# Table A provides data for compounds exemplified in the present application and priority document thereof, as representative compounds of the present invention, as follows: chemical name (as named by either ACD software or ChemDraw (Professional 15.0)) and biological data (IC50 in μM). Ex. […] refers to Example No.
# T1 sequence (Q8NI77 1-467): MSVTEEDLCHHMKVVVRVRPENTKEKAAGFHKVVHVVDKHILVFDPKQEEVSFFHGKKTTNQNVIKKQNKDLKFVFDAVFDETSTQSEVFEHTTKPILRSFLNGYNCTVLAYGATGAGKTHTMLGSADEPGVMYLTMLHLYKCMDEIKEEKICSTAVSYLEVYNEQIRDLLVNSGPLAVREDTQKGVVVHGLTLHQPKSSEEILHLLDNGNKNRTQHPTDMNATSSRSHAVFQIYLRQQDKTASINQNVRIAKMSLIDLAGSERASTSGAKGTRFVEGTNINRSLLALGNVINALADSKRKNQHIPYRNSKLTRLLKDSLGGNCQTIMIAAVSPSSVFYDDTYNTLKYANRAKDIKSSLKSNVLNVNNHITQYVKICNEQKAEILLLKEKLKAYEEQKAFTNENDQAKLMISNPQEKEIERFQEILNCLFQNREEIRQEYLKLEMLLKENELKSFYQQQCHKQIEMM
# T1 sequence (P02550 whole entry partner): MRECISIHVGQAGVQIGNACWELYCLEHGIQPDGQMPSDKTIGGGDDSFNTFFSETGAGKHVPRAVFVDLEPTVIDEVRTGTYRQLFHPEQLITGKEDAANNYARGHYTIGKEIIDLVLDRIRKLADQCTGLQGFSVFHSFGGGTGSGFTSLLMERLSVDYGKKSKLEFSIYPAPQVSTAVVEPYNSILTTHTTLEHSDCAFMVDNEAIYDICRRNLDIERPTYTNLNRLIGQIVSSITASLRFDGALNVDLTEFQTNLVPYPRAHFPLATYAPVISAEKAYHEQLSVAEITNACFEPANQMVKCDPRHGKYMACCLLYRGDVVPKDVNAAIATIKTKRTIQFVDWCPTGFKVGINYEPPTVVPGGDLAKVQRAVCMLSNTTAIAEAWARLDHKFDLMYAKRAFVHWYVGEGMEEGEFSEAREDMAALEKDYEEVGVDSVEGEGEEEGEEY
# T1 sequence (P02554 whole entry partner): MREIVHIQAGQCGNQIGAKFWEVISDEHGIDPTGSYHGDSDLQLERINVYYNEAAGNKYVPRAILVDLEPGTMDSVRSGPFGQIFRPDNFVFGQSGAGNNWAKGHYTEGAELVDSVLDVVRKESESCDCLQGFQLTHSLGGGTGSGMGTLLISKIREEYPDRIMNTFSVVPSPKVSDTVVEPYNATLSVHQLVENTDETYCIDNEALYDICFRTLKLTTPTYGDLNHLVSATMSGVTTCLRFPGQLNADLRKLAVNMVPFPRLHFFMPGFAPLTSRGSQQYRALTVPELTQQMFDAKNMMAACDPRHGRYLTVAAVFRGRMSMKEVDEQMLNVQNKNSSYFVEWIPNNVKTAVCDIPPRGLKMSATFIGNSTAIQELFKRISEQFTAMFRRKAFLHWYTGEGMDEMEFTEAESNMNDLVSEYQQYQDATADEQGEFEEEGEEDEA
row,Compound,IC50 [nM]
1,"CC(C)(C)NS(=O)(=O)c1cccc(NC(=O)c2ccc(-c3ncco3)cc2N2CCC3(CC2)CC3)c1 [Example 109-3, N-(3-(N-(tert-butyl)sulfamoyl)phenyl)-4-(oxazol-2-yl)-2-(6-azaspiro[2.5]octan-6-yl)benzamide]",534
2,"CC(C)(C)NS(=O)(=O)c1cccc(NC(=O)c2ccc(NS(=O)(=O)C3(C)CC3)cc2N2CCC3(CC2)CC3)c1 [Example 102, N-(3-(N-(tert-Butyl)sulfamoyl)phenyl)-4-((1-methylcyclopropane)-1-sulfonamido)-2-(6-azaspiro[2.5]octan-6-yl)benzamide]",61
3,"CNS(=O)(=O)c1ccc(C(=O)Nc2cccc(S(=O)(=O)NC(C)(C)C)c2)c(N2CCC3(CC2)CC3)c1 [Example 107-4, N-(3-(N-(tert-butyl)sulfamoyl)phenyl)-4-(N-methylsulfamoyl)-2-(6-azaspiro[2.5]octan-6-yl)benzamide]",29
4,"CC(C)(C)NS(=O)(=O)c1cccc(NC(=O)c2ccc(NS(=O)(=O)C(C)(C)C)cc2N2CCC3(CC2)CC3)c1 [Example 102-5, N-(3-(N-(tert-butyl)sulfamoyl)phenyl)-4-((1,1-dimethylethyl)sulfonamido)-2-(6-azaspiro[2.5]octan-6-yl)benzamide]",63
5,"CC(C)(O)COc1cccc(NC(=O)c2ccc(NS(=O)(=O)CCO)cc2N2CCC3(CC2)CC3)c1 [Example 106, N-(3-(2-Hydroxy-2-methylpropoxy)phenyl)-4-((2-hydroxyethyl)sulfonamido)-2-(6-azaspiro[2.5]octan-6-yl)benzamide]",78
6,"CC(C)(C)NS(=O)(=O)c1cccc(NC(=O)c2ccc(CS(=O)(=O)CCO)cc2N2CCC3(CC2)CC3)c1 [Example 100-12, N-(3-(N-(tert-butyl)sulfamoyl)phenyl)-4-(((2-hydroxyethyl)sulfonyl)methyl)-2-(6-azaspiro[2.5]octan-6-yl)benzamide]",75
7,"C[S@@](=N)(=O)c1cccc(NC(=O)c2ccc(NS(=O)(=O)CCO)cc2N2CCC3(CC2)CC3)c1 [Example 113-1, (R)-4-((2-hydroxyethyl)sulfonamido)-N-(3-(S-methylsulfonimidoyl)phenyl)-2-(6-azaspiro[2.5]octan-6-yl)benzamide]",429
8,"C[C@@H](CO)S(=O)(=O)Nc1ccc(C(=O)Nc2cccc(S(=O)(=O)NC(C)(C)C)c2)c(N2CCC3(CC2)CC3)c1 (single isomer, unassigned) [Example 105-1]",42
9,"Cc1ccnc2c(NC(=O)c3ccc(S(C)(=O)=O)cc3N3CCC4(CC3)CC4)cccc12 [Example 100-6, N-(4-methylquinolin-8-yl)-4-(methylsulfonyl)-2-(6-azaspiro[2.5]octan-6-yl)benzamide]",61
10,"CC(C)(C)NS(=O)(=O)c1cccc(NC(=O)c2ccc(S(C)(=O)=O)cc2N2CCC3(CC2)CC3)c1 [Example 100-1, N-(3-(N-(tert-butyl)sulfamoyl)phenyl)-4-(methylsulfonyl)-2-(6-azaspiro[2.5]octan-6-yl)benzamide]",61
11,"CC(C)(C)NS(=O)(=O)c1cccc(NC(=O)c2ccc(S(=O)(=O)NC3(C)CC3)cc2N2CCC3(CC2)CC3)c1 [Example 107-7, N-(3-(N-(tert-butyl)sulfamoyl)phenyl)-4-(N-(1-methylcyclopropyl)sulfamoyl)-2-(6-azaspiro[2.5]octan-6-yl)benzamide]",52
12,"CCS(=O)(=O)Nc1ccc(C(=O)Nc2cccc(S(=O)(=O)NC(C)(C)C)c2)c(N2CCC3(CC2)CC3)c1 [Example 102-2, N-(3-(N-(tert-butyl)sulfamoyl)phenyl)-4-(ethylsulfonamido)-2-(6-azaspiro[2.5]octan-6-yl)benzamide]",34
13,"CC(C)(C)NS(=O)(=O)c1cccc(NC(=O)c2ccc(NCCO)cc2N2CCC3(CC2)CC3)c1 [Example 110-1, N-(3-(N-(tert-butyl)sulfamoyl)phenyl)-4-((2-hydroxyethyl)amino)-2-(6-azaspiro[2.5]octan-6-yl)benzamide]",134
14,"CC(C)(CO)Nc1cccc(NC(=O)c2ccc(NS(=O)(=O)C3(C)CC3)cc2N2CCC3(CC2)CC3)c1F [Example 101-2, N-(2-fluoro-3-((1-hydroxy-2-methylpropan-2-yl)amino)phenyl)-4-((1-methylcyclopropane)-1-sulfonamido)-2-(6-azaspiro[2.5]octan-6-yl)benzamide]",298
15,"CS(=O)(=O)c1ccc(C(=O)Nc2cccc3ccoc23)c(N2CCC3(CC2)CC3)c1 [Example 100-8, N-(benzofuran-7-yl)-4-(methylsulfonyl)-2-(6-azaspiro[2.5]octan-6-yl)benzamide]",200
16,"CC(C)(C)[S@@](=N)(=O)c1cccc(NC(=O)c2ccc(NS(=O)(=O)CCO)cc2N2CCC3(CC2)CC3)c1 [Example 114-1, (R)-4-((2-hydroxyethyl)sulfonamido)-N-(3-(2-methylpropan-2-ylsulfonimidoyl)phenyl)-2-(6-azaspiro[2.5]octan-6-yl)benzamide]",194

row,Compound,IC50 [nM]
1,"CNC(=O)c1ccc(C(=O)Nc2cccc(S(=O)(=O)NC(C)(C)C)c2)c(N2CCC3(CC2)CC3)c1 [Example 111-1, N^1-(3-(N-(tert-butyl)sulfamoyl)phenyl)-N^4-methyl-2-(6-azaspiro[2.5]octan-6-yl)terephthalamide]",132
2,"C[S@](=N)(=O)c1cccc(NC(=O)c2ccc(NS(=O)(=O)CCO)cc2N2CCC3(CC2)CC3)c1 [Example 113-2, (S)-4-((2-hydroxyethyl)sulfonamido)-N-(3-(S-methylsulfonimidoyl)phenyl)-2-(6-azaspiro[2.5]octan-6-yl)benzamide]",488
3,"CS(=O)(=O)c1ccc(C(=O)Nc2cccc3c2OCCC3)c(N2CCC3(CC2)CC3)c1 [Example 100-7, N-(chroman-8-yl)-4-(methylsulfonyl)-2-(6-azaspiro[2.5]octan-6-yl)benzamide]",45
4,"CN(CCO)C(=O)c1ccc(C(=O)Nc2cccc(S(=O)(=O)NC(C)(C)C)c2)c(N2CCC3(CC2)CC3)c1 [Example 111-2, N^1-(3-(N-(tert-butyl)sulfamoyl)phenyl)-N^4-(2-hydroxyethyl)-N^4-methyl-2-(6-azaspiro[2.5]octan-6-yl)terephthalamide]",201
5,"CC(C)(C)NS(=O)(=O)c1cccc(NC(=O)c2ccc(S(=O)(=O)NC(C)(C)CO)cc2N2CCC3(CC2)CC3)c1 [Example 107-1, N-(3-(N-(tert-butyl)sulfamoyl)phenyl)-4-(N-(1-hydroxy-2-methylpropan-2-yl)sulfamoyl)-2-(6-azaspiro[2.5]octan-6-yl)benzamide]",60
6,"CC(C)(C)NS(=O)(=O)c1cccc(NC(=O)c2ccc(C(=O)NC(C)(C)CO)cc2N2CCC3(CC2)CC3)c1 [Example 111-3, N^1-(3-(N-(tert-butyl)sulfamoyl)phenyl)-N^4-(1-hydroxy-2-methylpropan-2-yl)-2-(6-azaspiro[2.5]octan-6-yl)terephthalamide]",272
7,"CC(C)(C)NS(=O)(=O)c1cccc(NC(=O)c2ccc(NS(=O)(=O)C3CC3)cc2N2CCC3(CC2)CC3)c1 [Example 102-4, N-(3-(N-(tert-butyl)sulfamoyl)phenyl)-4-(cyclopropanesulfonamido)-2-(6-azaspiro[2.5]octan-6-yl)benzamide]",30
8,"CC(C)(C)NS(=O)(=O)c1cccc(NC(=O)c2ccc(C3(C)COC3)cc2N2CCC3(CC2)CC3)c1 [Example 100-14, N-(3-(N-(tert-butyl)sulfamoyl)phenyl)-4-(3-methyloxetan-3-yl)-2-(6-azaspiro[2.5]octan-6-yl)benzamide]",130
9,"CS(=O)(=O)c1ccc(C(=O)Nc2cccc(C3CC3)c2)c(N2CCC3(CC2)CC3)c1 [Example 100-3, N-(3-cyclopropylphenyl)-4-(methylsulfonyl)-2-(6-azaspiro[2.5]octan-6-yl)benzamide]",187
10,"C[C@@H]1CN(c2cccc(NC(=O)c3ccc(NS(=O)(=O)CCO)cc3N3CCC4(CC3)CC4)c2F)CCO1 [Example 103-2, (R)-N-(2-fluoro-3-(2-methylmorpholino)phenyl)-4-((2-hydroxyethyl)sulfonamido)-2-(6-azaspiro[2.5]octan-6-yl)benzamide]",101
11,"CC(C)(C)NS(=O)(=O)c1cccc(NC(=O)c2ccc(N3CCCS3(=O)=O)cc2N2CCC3(CC2)CC3)c1 [Example 102-6, N-(3-(N-(tert-butyl)sulfamoyl)phenyl)-4-(1,1-dioxidoisothiazolidin-2-yl)-2-(6-azaspiro[2.5]octan-6-yl)benzamide]",45
12,"C[C@@H]1CN(c2cccc(NC(=O)c3ccc(NS(=O)(=O)CCO)cc3N3CCC4(CC3)CC4)c2)CCO1 [Example 103-1, (R)-4-((2-hydroxyethyl)sulfonamido)-N-(3-(2-methylmorpholino)phenyl)-2-(6-azaspiro[2.5]octan-6-yl)benzamide]",71
13,"N=[S@@](=O)(c1cccc(NC(=O)c2ccc(NS(=O)(=O)CCO)cc2N2CCC3(CC2)CC3)c1)N1CCC1 (single isomer, unassigned) [Example 112-2]",160
14,"CC(C)(C)NS(=O)(=O)c1cccc(NC(=O)c2ccc(C(=O)NCCO)cc2N2CCC3(CC2)CC3)c1 [Example 111, N-(3-(N-(tert-Butyl)sulfamoyl)phenyl)-N^4-(2-hydroxyethyl)-2-(6-azaspiro[2.5]octan-6-yl)terephthalamide]",124
15,"CS(=O)(=O)c1ccc(C(=O)Nc2cccc(N3CCOCC3)c2)c(N2CCC3(CC2)CC3)c1 [Example 100-10, 4-(methylsulfonyl)-N-(3-morpholinophenyl)-2-(6-azaspiro[2.5]octan-6-yl)benzamide]",862
